Key:
MARK4 = test: KINOMEscan; format: binding; details: 1000 nM
FLT4 = test: KINOMEscan; format: binding; details: 1000 nM
LATS1 = test: KINOMEscan; format: binding; details: 1000 nM
PRKD2 = test: KINOMEscan; format: binding; details: 1000 nM
[1] = system: panel of B-cell lymphoma cell lines; test: anti-proliferative CellTiter-Glo assay, whole panel; format: cell-based; details: all cell lines of the B-cell lymphoma panel
Experimental: Cell viability was measured using the CellTiter–Glo assay (Promega, USA) according to the manufacturer’s instructions, and […] was measured in a Bio-red Microplate reader (Bio-Red, USA).

CDKL3 = test: KINOMEscan; format: binding; details: 1000 nM
TSSK3 = test: KINOMEscan; format: binding; details: 1000 nM
STK35 = test: KINOMEscan; format: binding; details: 1000 nM
[2] = system: EGFR(L747-E749del, A750P); test: KINOMEscan; format: binding; details: 1000 nM
NEK4 = test: KINOMEscan; format: binding; details: 1000 nM
CDKL1 = test: KINOMEscan; format: binding; details: 1000 nM
PIK3CA(I800L) = test: KINOMEscan; format: binding; details: 1000 nM
LIMK1 = test: KINOMEscan; format: binding; details: 1000 nM
CASK = test: KINOMEscan; format: binding; details: 1000 nM
EGFR(G719S) = test: KINOMEscan; format: binding; details: 1000 nM
MLK2 = test: KINOMEscan; format: binding; details: 1000 nM
TSSK1B = test: KINOMEscan; format: binding; details: 1000 nM
NDR1 = test: KINOMEscan; format: binding; details: 1000 nM
PRKD1 = test: KINOMEscan; format: binding; details: 1000 nM
MET(M1250T) = test: KINOMEscan; format: binding; details: 1000 nM
PHKG1 = test: KINOMEscan; format: binding; details: 1000 nM
BRK = test: KINOMEscan; format: binding; details: 1000 nM
DMPK2 = test: KINOMEscan; format: binding; details: 1000 nM
PFCDPK1(P.falciparum) = test: KINOMEscan; format: binding; details: 1000 nM
FLT3(D835Y) = test: KINOMEscan; format: binding; details: 1000 nM
HCK = test: KINOMEscan; format: binding; details: 1000 nM
HIPK3 = test: KINOMEscan; format: binding; details: 1000 nM
WNK1 = test: KINOMEscan; format: binding; details: 1000 nM
RET(M918T) = test: KINOMEscan; format: binding; details: 1000 nM
MEK2 = test: KINOMEscan; format: binding; details: 1000 nM
[3] = system: NK cells co-seeded with Mino cells; test: IFN-γ secretion ELISA, NK cells co-cultured with Mino cells in presence of Rituximab; format: cell-based, human; details: Mino co-culture; 0.1 to 3 μM
STK16 = test: KINOMEscan; format: binding; details: 1000 nM
PRKCD = test: KINOMEscan; format: binding; details: 1000 nM
CSF1R = test: KINOMEscan; format: binding; details: 1000 nM
ULK3 = test: KINOMEscan; format: binding; details: 1000 nM
HASPIN = test: KINOMEscan; format: binding; details: 1000 nM
[4] = drug enrichment in the tumor; format: in vivo, mouse; details: 100 mg/kg
ANKK1 = test: KINOMEscan; format: binding; details: 1000 nM
EPHB1 = test: KINOMEscan; format: binding; details: 1000 nM
TRKC = test: KINOMEscan; format: binding; details: 1000 nM
DRAK2 = test: KINOMEscan; format: binding; details: 1000 nM
EPHA6 = test: KINOMEscan; format: binding; details: 1000 nM
MEK3 = test: KINOMEscan; format: binding; details: 1000 nM
TXK = molecular target: T1, TXK (Homo sapiens, UniProt P42681); test: KINOMEscan; format: binding; details: 1000 nM
T1 construct: purchased Invitrogen (Carlsbad, CA, USA)
T1 sequence (P42681 whole entry): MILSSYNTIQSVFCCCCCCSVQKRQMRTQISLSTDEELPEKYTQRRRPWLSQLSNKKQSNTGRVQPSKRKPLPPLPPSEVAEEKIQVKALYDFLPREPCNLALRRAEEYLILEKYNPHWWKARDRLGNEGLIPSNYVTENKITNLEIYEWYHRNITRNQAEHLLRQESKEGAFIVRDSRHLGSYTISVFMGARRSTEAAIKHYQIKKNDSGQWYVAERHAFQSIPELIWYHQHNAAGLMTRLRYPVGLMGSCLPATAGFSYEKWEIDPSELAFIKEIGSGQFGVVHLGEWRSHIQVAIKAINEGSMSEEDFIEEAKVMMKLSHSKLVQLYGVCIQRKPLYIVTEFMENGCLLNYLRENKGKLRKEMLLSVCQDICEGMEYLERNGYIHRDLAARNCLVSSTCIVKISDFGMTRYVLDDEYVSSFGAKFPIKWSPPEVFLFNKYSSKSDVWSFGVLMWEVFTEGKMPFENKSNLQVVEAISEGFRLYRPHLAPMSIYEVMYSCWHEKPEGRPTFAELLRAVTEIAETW

MARK2 = test: KINOMEscan; format: binding; details: 1000 nM
SNARK = test: KINOMEscan; format: binding; details: 1000 nM
STK39 = test: KINOMEscan; format: binding; details: 1000 nM
[5] = system: ABL1(F317I)-phosphorylated; test: KINOMEscan; format: binding; details: 1000 nM
NEK7 = test: KINOMEscan; format: binding; details: 1000 nM
CSNK2A2 = test: KINOMEscan; format: binding; details: 1000 nM
IRAK3 = test: KINOMEscan; format: binding; details: 1000 nM
SRMS = test: KINOMEscan; format: binding; details: 1000 nM
CDK4 = test: KINOMEscan; format: binding; details: 1000 nM
[6] = system: RSK2(Kin.Dom.2-C-terminal); test: KINOMEscan; format: binding; details: 1000 nM
[7] = system: ABL1(F317L)-phosphorylated; test: KINOMEscan; format: binding; details: 1000 nM
TIE1 = test: KINOMEscan; format: binding; details: 1000 nM
p38-alpha = test: KINOMEscan; format: binding; details: 1000 nM

For `C=CC(=O)Nc1cc(Nc2cc(-c3cccc(NC(=O)c4cc5c(s4)CCCC5)c3C)cn(C)c2=O)ccc1N1CCN(CC)CC1` [CHMFL-BTK-85], the “Percent Control” value (MARK4) was 66%, the “Percent Control” value (FLT4) was 97% and the “Percent Control” value (LATS1) was 100%. For the same molecule, the “Percent Control” value (PRKD2) was 100%, the GI50s [1] was < 2000 nM and the “Percent Control” value (CDKL3) was 99%. The “Percent Control” value (TSSK3) was 100%, the “Percent Control” value (STK35) was 100% and the “Percent Control” value [2] was 57%. The “Percent Control” value (NEK4) was 100%, the “Percent Control” value (CDKL1) was 77% and the “Percent Control” value (PIK3CA(I800L)) was 100%. For the same molecule, the “Percent Control” value (LIMK1) was 98%, the “Percent Control” value (CASK) was 100% and the “Percent Control” value (EGFR(G719S)) was 88%. The “Percent Control” value (MLK2) was 90%, the “Percent Control” value (TSSK1B) was 88% and the “Percent Control” value (NDR1) was 100%. For the same molecule, the “Percent Control” value (PRKD1) was 100%, the “Percent Control” value (MET(M1250T)) was 95% and the “Percent Control” value (PHKG1) was 94%. For the same molecule, the “Percent Control” value (BRK) was 21%, the “Percent Control” value (DMPK2) was 100% and the “Percent Control” value (PFCDPK1(P.falciparum)) was 100%. The “Percent Control” value (FLT3(D835Y)) was 100%, the “Percent Control” value (HCK) was 100% and the “Percent Control” value (HIPK3) was 100%. For the same molecule, the “Percent Control” value (WNK1) was 100%, the “Percent Control” value (RET(M918T)) was 78% and the “Percent Control” value (MEK2) was 100%. The “inhibition of Rituximab-induced IFN-γ secretion in NK cells” value [3] was “no apparent inhibition”, the “Percent Control” value (STK16) was 68% and the “Percent Control” value (PRKCD) was 77%. The “Percent Control” value (CSF1R) was 90%, the “Percent Control” value (ULK3) was 100% and the “Percent Control” value (HASPIN) was 100%. The “concentration in the tumor” value [4] was 2370 nM, the “Percent Control” value (ANKK1) was 100% and the “Percent Control” value (EPHB1) was 100%. For the same molecule, the “Percent Control” value (TRKC) was 100%, the “Percent Control” value (DRAK2) was 100% and the “Percent Control” value (EPHA6) was 100%. For the same molecule, the “Percent Control” value (MEK3) was 100%, the percent of control binding at 1 µM (TXK) was 82% and the “Percent Control” value (MARK2) was 91%. The “Percent Control” value (SNARK) was 100%, the “Percent Control” value (STK39) was 100% and the “Percent Control” value [5] was 100%. The “Percent Control” value (NEK7) was 96%, the “Percent Control” value (CSNK2A2) was 98% and the “Percent Control” value (IRAK3) was 100%. The “Percent Control” value (SRMS) was 85%, the “Percent Control” value (CDK4) was 100% and the “Percent Control” value [6] was 99%. The “Percent Control” value [7] was 100%, the “Percent Control” value (TIE1) was 87% and the “Percent Control” value (p38-alpha) was 93%.

— paper PMC7490411 (Signal Transduction and Targeted Therapy, 2020)
